By pIC50 is commonly meant −log10 of the IC50, conventionally taken in molar units.

Test [1] has as its system LPA-induced MCP-1 in NRK-49F cells. As to the kind of experiment: LPA-induced MCP-1 AlphaLISA assay. Format: cell-based. Particulars: Rattus norvegicus, final LPA 10 μM, 7 hours; for Emax: read-out: Maximum Inhibition. As for the experimental part:
Two days prior to the experiment, NRK-49F cells were plated at 8,000 cells/well in 100 μL of growth medium [DMEM (Life Technologies #11995) with 5% dFBS (Life Technologies #30067-334), 100 units/mL penicillin/streptomycin (Life Technologies #15140122)] in 96-well clear flat bottom polystyrene TC-treated microplate (Corning® #3599) and incubated in humidified 10% CO2 at 37° C. One day prior to the experiment, the cell medium was removed and serum free medium [100 μL/well, DMEM (Life Technologies #11995) with 0.1% fatty acid free BSA (Sigma #A6003)] was added with continued incubation in humidified 10% CO2 at 37° C. overnight. On the day of the assay, test compounds were 1:3 serially diluted in 100% DMSO using a BioTek Precision™ system and then transferred (equivalent volume of DMSO as controls) to a plate in serum free medium [DMEM with 0.1% fatty acid free BSA] using a Biomek® NX workstation to give a 2× compound solution. The cell culture medium was removed, and cells were pre-treated with 50 μL/well of 2× compound in serum free medium [DMEM with 0.1% fatty acid free BSA] at 37° C. for 30 minutes. Following the incubation, 50 μL/well of 20 μM LPA diluted in serum free medium [DMEM with 0.1% fatty acid free BSA] was added to the cells. Serum free medium [DMEM with 0.1% fatty acid free BSA] was used as substitution for low control wells while 20 µM LPA was added to high control wells and test compound wells. 200 µM LPA was added to EC100 wells. Final DMSO concentration was 1% in every well. Final LPA concentration in test compound wells and high control wells was 10 μM. […] After the incubation, cell supernatant was transferred to a new 96 well polypropylene plate (Greiner #651201) where it was sealed and stored at −80° C. On the detection day, 5 μL of thawed cell supernatant was transferred to a new white opaque 384-well microplate (Perkin Elmer #6007299). An AlphaLISA® mouse/rat CCL2/MCP1, Immunoassay Research kit (PerkinElmer #AL509F) was used. A mixture (20 μL/well) of AlphaLISA® Anti-Analyte Accept beads (10 μg/mL final) and Biotinylated Antibody Anti-Analyte (freshly prepared, 1 nM final) was added. The mixture in the wells was mixed and then incubated at room temperature for 1 hour. Then SA-Donor beads (25 μL/well, 40 μg/mL final) were added giving a final volume of 50 μL/well. The contents of the wells were mixed and then incubated at room temperature for 0.5 hour (protect from light). The plate was read using the default Envision™ Alpha protocol (PerkinElmer). IC50 values were calculated from curve fits of the ratio data using a four-parameter logistic Hill equation (Assay Explorer 3.3 Client).
On the technique in general: Bead proximity is the source of the signal in Alpha formats.

In another test the target is T1, LPAR1 (Homo sapiens, UniProt Q92633).
T1 construct: host or cells: U2OS
As to the kind of experiment: LPAR1 FLIPR Assay. Type of test: cell-based. To be noted: U2OS cells stably expressing LPAR1, LPA (EC80), Calcium 6 FLIPR dye; for Emax: read-out: Maximum Inhibition. The procedure: U2OS cells stably expressing LPAR1 (Life Technologies #K1519A) were plated at 12000 cells/well in growth medium (McCoy's 5A medium(Life Technologies 16600-082)) with 10% dFBS (Life Technologies 26400-036), 0.1 mM non-essential amino acids, 25 mM HEPES, 1 mM sodium pyruvate, 1% penicillin/streptomycin, 50 μg/mL hygromycin, and 100 μg/mL Geneticin® in black-walled, clear-bottom 384-well plates (Corning #3683) and incubated in humidified 5% CO2 at 37° C. overnight. On the day of the assay, medium was removed and 30 μL of 5% Calcium 6 FLIPR dye in assay buffer-HBSS (Life Technologies #14025) containing 20 mM HEPES (Life Technologies #15630-080) was added to the cells. Cells were incubated at 37° C. in the dark for 2 hours. Compounds were 3-fold serial diluted from 10 mM for 11-points using dimethyl sulfoxide. 1 μL of compound in DMSO was diluted in 82.3 μL assay buffer immediately before the assay. Using a FLIPR® TETRA® system, 15 μL of the (4×) compound solutions were first added to the cells, then 15 μL of LPA (EC80) diluted in of assay buffer supplemented with 0.1% BSA was added 3 minutes later to activate the receptor. Changes in fluorescence were measured at wavelengths of 515-575 nm over the course of the experimental run. IC50 values were calculated from curve fits of the ratio data using a four-parameter logistic Hill equation (Assay Explorer 3.3 Client).

pIC50: −log10 of the molar value.

T1 sequence (Q92633 whole entry): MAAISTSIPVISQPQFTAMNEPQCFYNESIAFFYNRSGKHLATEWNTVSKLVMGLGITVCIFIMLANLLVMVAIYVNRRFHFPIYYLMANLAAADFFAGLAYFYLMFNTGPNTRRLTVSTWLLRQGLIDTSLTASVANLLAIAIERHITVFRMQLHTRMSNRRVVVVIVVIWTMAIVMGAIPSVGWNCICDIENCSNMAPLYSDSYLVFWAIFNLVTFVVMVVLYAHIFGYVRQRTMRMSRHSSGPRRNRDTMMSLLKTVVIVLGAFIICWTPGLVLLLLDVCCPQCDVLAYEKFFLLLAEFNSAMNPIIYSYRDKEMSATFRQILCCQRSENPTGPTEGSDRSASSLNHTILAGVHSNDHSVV

`COc1cc(C(=O)N(CCCCC(=O)O)CCCc2ccccc2)ccc1Cl` [Example 17, 5-[(4-chloro-3-methoxybenzoyl)(3-phenylpropyl)amino]pentanoic Acid]: in test [1], the pIC50 was < 5.89 and the Emax amounted to 65%. Besides, at LPAR1, the pIC50 was 5.40 and the Emax was determined as 61%.

In the case of `CCOc1cc(OCC)cc(C(=O)N(CCCCC(=O)O)CCCc2ccccc2)c1` [Example 18, 5-[(3,5-diethoxybenzoyl)(3-phenylpropyl)amino]pentanoic Acid], in test [1], the negative-log IC50 (pIC50) is 5.79 and the Emax came out at 86%. Moreover, at LPAR1, the pIC50 is 7.30 and the Emax worked out at 89%.

With `COc1cc(OC)c([N+](=O)[O-])c(C(=O)N(CCCCC(=O)O)CCCc2ccccc2)c1` [Example 19, 5-[(3,5-dimethoxy-2-nitrobenzoyl)(3-phenylpropyl)amino]pentanoic Acid], the pIC50 is 6.11 in test [1] and 7.15 on LPAR1. Moreover, the Emax came to 84% in test [1] and 98% on LPAR1.

For the compound `COc1cc(C(=O)N(CCCCC(=O)O)CCCc2ccccc2)ccc1[N+](=O)[O-]` [Example 22, 5-[(3-methoxy-4-nitrobenzoyl)(3-phenylpropyl)amino]pentanoic Acid], the pIC50 was < 5.03 in test [1] and 7.27 on LPAR1. Besides, the Emax stood at 42% in test [1] and 89% at LPAR1.

Regarding `COc1cc(C(=O)N(CCCCC(=O)O)CCCc2ccccc2)cc2oc(C)cc12` [Example 31, 5-[(4-methoxy-2-methyl-1-benzofuran-6-carbonyl)(3-phenylpropyl)amino]pentanoic Acid], in test [1], the pIC50 was 5.27 and the Emax is 68%. At LPAR1, the negative logarithm of the IC50 (pIC50) is 7.35 and the Emax was found to be 87%.

For `COc1cc(C(=O)N(CCCc2ccccc2)CC(=O)N[C@@H](Cc2cccs2)C(=O)O)cc(OC)c1C` [Example 47, N-(3,5-dimethoxy-4-methylbenzoyl)-N-(3-phenylpropyl)glycyl-3-thiophen-2-ylalanine], in test [1], the pIC50 was 5.33 and the Emax worked out at 58%. Besides, on LPAR1, the pIC50 was 7.10 and the Emax turned out to be 88%.

`COc1cc(C(=O)N(CCCc2ccccc2)CCCC(Cc2ccccc2)C(=O)O)cc(OC)c1C` (stereo not shown) [Example 52, 2-benzyl-5-[(3,5-dimethoxy-4-methylbenzoyl)(3-phenylpropyl)amino]pentanoic Acid]: the results for the negative logarithm of the IC50 (pIC50) (in test [1]; at LPAR1) were 6.00 and 6.91, respectively. Also, the Emax was determined as 77% in test [1] and 87% at LPAR1.

In the case of `COc1cc(C(=O)N(CCCc2ccccc2)CCC(=O)O)cc(OC)c1C` [Example 67, N-(3,5-dimethoxy-4-methylbenzoyl)-N-(3-phenylpropyl)-beta-alanine], in test [1], the pIC50 is 5.43 and the Emax amounted to 57%. Also, at LPAR1, the pIC50 is < 4.52 and the Emax was determined as 46%.

Consider `CNS(=O)(=O)NC(=O)CCCCN(CCCc1ccccc1)C(=O)c1cc(OC)c(C)c(OC)c1` [Example 70, 3,5-dimethoxy-4-methyl-N-{5-[(methylsulfamoyl)amino]-5-oxopentyl}-N-(3-phenylpropyl)benzamide], for which the values for the pIC50 (in test [1]; on LPAR1) were 6.20 and 7.25, respectively. Moreover, the Emax was 90% in test [1] and 98% on LPAR1.

In the case of `COc1ccc(C(=O)N(CCCCC(=O)O)CCCc2ccccc2)cc1F` [Example 79, 5-[(3-fluoro-4-methoxybenzoyl)(3-phenylpropyl)amino]pentanoic Acid], the pIC50 is < 5.00 in test [1] and < 4.52 on LPAR1. The Emax in test [1] came to 36%; on LPAR1, 13%.

As to `O=C(O)CCCCN(CCCc1ccccc1)C(=O)c1ccc2c(c1)OCO2` [Example 80, 5-[(2H-1,3-benzodioxole-5-carbonyl)(3-phenylpropyl)amino]pentanoic Acid], the pIC50 in test [1] is < 5.00; at LPAR1, < 4.52. In addition, the Emax (in test [1]; at LPAR1) was 37% each time.

Consider `COc1cc(C(=O)N(CCCCC(=O)O)CCCc2ccccc2)ccc1F` [Example 81, 5-[(4-fluoro-3-methoxybenzoyl)(3-phenylpropyl)amino]pentanoic Acid], for which, in test [1], the pIC50 was < 5.00 and the Emax is 33%. Besides, at LPAR1, the pIC50 is < 4.52 and the Emax worked out at 31%.

As to `COc1cccc(C2(C(=O)N(CCCCC(=O)O)CCCc3ccccc3)CC2)c1` [Example 82, 5-{[1-(3-methoxyphenyl)cyclopropane-1-carbonyl](3-phenylpropyl)amino}pentanoic Acid], in test [1], the pIC50 was < 5.00 and the Emax worked out at 2%. On LPAR1, the pIC50 is < 4.52 and the Emax worked out at 39%.

Consider `COc1ccc(C(=O)N(CCCCC(=O)O)CCCc2ccccc2)cc1OC` [Example 83, 5-[(3,4-dimethoxybenzoyl)(3-phenylpropyl)amino]pentanoic Acid], for which, in test [1], the pIC50 is < 5.00 and the Emax was 11%. For the same compound, on LPAR1, the pIC50 is < 4.52 and the Emax came to 25%.

As to `COc1ccc(C(=O)N(CCCCC(=O)O)CCCc2ccccc2)cc1` [Example 84, 5-[(4-methoxybenzoyl)(3-phenylpropyl)amino]pentanoic Acid], in test [1], the pIC50 is < 5.00 and the Emax came out at 31%. Besides, on LPAR1, the pIC50 was < 4.52 and the Emax turned out to be 7%.

As for `COc1ccc(C(C)(C)C(=O)N(CCCCC(=O)O)CCCc2ccccc2)cc1` [Example 85, 5-{[2-(4-methoxyphenyl)-2-methylpropanoyl](3-phenylpropyl)amino}pentanoic Acid], the pIC50 in test [1] was < 5.00; at LPAR1, < 4.52. In addition, the Emax came to 12% in test [1] and 14% at LPAR1.

For `COc1ccc(C2(C(=O)N(CCCCC(=O)O)CCCc3ccccc3)CCC2)cc1` [Example 86, 5-{[1-(4-methoxyphenyl)cyclobutane-1-carbonyl](3-phenylpropyl)amino}pentanoic Acid], in test [1], the pIC50 is 5.53 and the Emax came out at 74%. At LPAR1, the pIC50 was 7.36 and the Emax turned out to be 88%.

For the compound `COc1ccc(C2(C(=O)N(CCCc3ccccc3)CCOCC(=O)O)CC2)cc1` [Example 87, (2-{[1-(4-methoxyphenyl)cyclopropane-1-carbonyl](3-phenylpropyl)amino}ethoxy)acetic Acid], the pIC50 in test [1] was 5.26; on LPAR1, 7.09. Also, the Emax in test [1] was 62%; at LPAR1 it was 71%.

For the compound `COc1ccc(C2(C(=O)N(CCCCC(=O)O)CCCc3cccc(F)c3)CC2)cc1` [Example 92, 5-{[3-(3-fluorophenyl)propyl][1-(4-methoxyphenyl)cyclopropane-1-carbonyl]amino}pentanoic Acid], the pIC50 in test [1] was 5.35; on LPAR1, 7.22. Besides, the results for the Emax (in test [1]; on LPAR1) were 72% and 90%, respectively.
